Measurements reported in patent US20030180228A1, “Aerosol container for formulations of salmeterol xinafoate” (priority 2000, published 2003).

Tests used:
[1] = Fine particle mass (FPM) by Andersen Cascade Impactor on storage, section A canisters; type: physicochemical
Procedure: The FPM of an actuation from an MDI can be calculated based on, for example, the sum of the amount of drug substance deposited on stages 3, 4 and 5 of an Andersen Cascade Impaction stack as determined by standard HPLC analysis.
(§1) In the experiments below canisters were stored in an inverted orientation. Valves all had 63 μl metering volume. Water content was measured ex-valve using Karl-Fischer methodology.
(§2) Aluminium canisters fitted with Valois D60 valve and containing 12 g HFA 134a and 6.53 mg salmeterol xinafoate were stored under various conditions of temperature and humidity and the moisture content measured and FPM measured (Andersen Cascade Impactor), with results as follows:
(§3) Aluminium canisters fitted with Valois DF60 valve and containing 12g HFA 134a and 6.53 mg salmeterol xinafoate were stored under various conditions of temperature and humidity and the moisture content measured and FPM measured (Andersen Cascade Impactor), with results as follows:
(§4) Aluminium canisters fitted with Bespak valve and containing […] and 6.53 mg salmeterol xinafoate were stored under various conditions of temperature and humidity and the moisture content measured and FPM measured (Andersen Cascade Impactor), with results as follows:
(§5) Aluminium canisters fitted with Valois DF60 valve and containing 12g HFA134a and 6.53 mg salmeterol xinafoate were stored under various conditions of temperature and humidity and the moisture content measured and FPM measured (Andersen Cascade Impactor), with results as follows: […]

[2] = Water content of salmeterol xinafoate HFA 134a canisters on storage, ex-valve Karl-Fischer; type: physicochemical
Procedure: The water content of the formulation may be determined by conventional Karl Fischer methodology. Typically this involves measuring the total water content of the formulation ex-valve using Couliometric titration.
as §1, §2, §3, §4, §5

[3] = (iii) Valois D60 valve, 30° C./60% RH, 3 months
[4] = (iii) Valois D60 valve, 40° C./75% RH, 1 month
[5] = (iii) Valois D60 valve, 40° C./75% RH, 3 months
[6] = (iii) Valois D60 valve, 40° C./75% RH, Initial
[7] = (iv) Valois DF60 valve, 25° C./60% RH, 1 month
[8] = (iv) Valois DF60 valve, 25° C./60% RH, 3 months
[9] = (iv) Valois DF60 valve, 25° C./60% RH, 6 month
[10] = (iv) Valois DF60 valve, 25° C./60% RH, Initial
[11] = (iv) Valois DF60 valve, 25° C./75% RH, 1 month
[12] = (iv) Valois DF60 valve, 25° C./75% RH, 3 months
[13] = (iv) Valois DF60 valve, 25° C./75% RH, 6 month
[14] = (iv) Valois DF60 valve, 25° C./75% RH, Initial
[15] = (iv) Valois DF60 valve, 40° C./75% RH, 1 month
[16] = (iv) Valois DF60 valve, 40° C./75% RH, 3 months
[17] = (iv) Valois DF60 valve, 40° C./75% RH, 6 month
[18] = (v) Bespak valve, 40° C./75% RH, 3 months
[19] = (vi) Valois DF60 valve, 40° C./75% RH, 3 months
[20] = (vii) Valois DF60 valve, 40° C./75% RH, 3 months

`OCc1cc(C(O)CNCCCCCCOCCCCc2ccccc2)ccc1O` (stereo not drawn) [salmeterol xinafoate, 4-Hydroxy-α^1-[[[6-(4-phenylbutoxy)hexyl]amino]methyl]-1,3-benzenedimethanol] showed an FPM [1, 3] of 7.9 µg, an FPM ([1]; (iii) Valois D60 valve, 30° C./60% RH, Initial) of 10.3 µg and an FPM [1, 4] of 8.2 µg. For the same compound, the FPM [1, 5] was 6.2 µg, the FPM [1, 6] was 10.3 µg and the FPM [1, 7] was 8.4 µg. It also gave an FPM [1, 8] of 8.3 µg, an FPM [1, 9] of 7.5 µg and an FPM [1, 10] of 9.4 µg. The FPM [1, 11] was 8.4 µg, the FPM [1, 12] was 8.0 µg and the FPM [1, 13] was 7.2 µg. The FPM [1, 14] was 9.4 µg, the FPM [1, 15] was 7.8 µg and the FPM [1, 16] was 6.0 µg. For the same compound, the FPM [1, 17] was 6.2 µg, the FPM ([1]; (iv) Valois DF60 valve, 40° C./75% RH, Initial) was 9.4 µg and the FPM [1, 18] was 7.0 µg. For the same compound, the FPM ([1]; (v) Bespak valve, 40° C./75% RH, Initial) was 11.3 µg, the FPM [1, 19] was 6.7 µg and the FPM ([1]; (vi) Valois DF60 valve, 40° C./75% RH, Initial) was 9.5 µg. It also gave an FPM [1, 20] of 7.4 µg, an FPM ([1]; (vii) Valois DF60 valve, 40° C./75% RH, Initial) of 9.6 µg and a Water content ([2]; (iii) Valois D60 valve, 6.53 mg in 12 g HFA 134a, 30° C./60% RH, Initial) of 92 ppm. The Water content [2, 3] was 463 ppm, the Water content [2, 4] was 412 ppm and the Water content [2, 5] was 616 ppm. The Water content [2, 6] was 92 ppm, the Water content ([2]; (iv) Valois DF60 valve, 6.53 mg in 12 g HFA 134a, 40° C./75% RH, Initial) was 81 ppm and the Water content [2, 7] was 194 ppm. The Water content [2, 8] was 405 ppm, the Water content [2, 9] was 446 ppm and the Water content [2, 10] was 81 ppm. For the same compound, the Water content [2, 11] was 217 ppm, the Water content [2, 12] was 434 ppm and the Water content [2, 13] was 485 ppm. It also gave a Water content [2, 14] of 81 ppm, a Water content [2, 15] of 360 ppm and a Water content [2, 16] of 540 ppm. For the same compound, the Water content [2, 17] was 526 ppm, the Water content ([2]; (v) Bespak valve, 6.53 mg in HFA 134a, 40° C./75% RH, Initial) was 118 ppm and the Water content [2, 18] was 457 ppm. It also gave a Water content ([2]; (vi) Valois DF60 valve, 6.53 mg in 12 g HFA 134a, 40° C./75% RH, Initial) of 213 ppm, a Water content [2, 19] of 746 ppm and a Water content ([2]; (vii) Valois DF60 valve, 6.53 mg in 12 g HFA134a, 40° C./75% RH, Initial) of 181 ppm. For the same compound, the Water content [2, 20] was 668 ppm.
